According to US6855730B2, “3-methylidenyl-2-indolinone modulators of protein kinase” (Sugen, Inc., priority 1998, dated 2005):

Legend:
human flk-1 = molecular target: T1, human flk-1 (Homo sapiens, UniProt P35968); assay: Biochemical FLK-1 assay (flk-1 autophosphorylation ELISA); details: read-out: bio FLK1 IC50 (μM) % if inhibition at 100
T1 construct: host or cells: Flk-1/NIH cells (NIH fibroblasts)
Method: This assay evaluates flk-1 autophosphorylation activity in vitro using ELISA.
Materials And Reagents • 1. 15 cm tissue culture dishes • 2. Flk-1/NIH cells: NIH fibroblast line over-expressing human flk-1clone 3 (SUGEN, Inc., obtained from MPI, Martinsried, Germany). • 3. Growth medium: DMEM plus heat inactivated 10% FBS and 2 mM Glutamine (Gibco-BRL). • 4. Starvation medium: DMEM plus 0.5% heat-inactivated FBS, 2 mM Glutamine (Gibco-BRL). • 5. […] L4 or E38 monoclonal antibody specific for flk-1, Purified by Protein-A agarose affinity chromatography (SUGEN, Inc.). • 7. PBS (Dulbecco's Phosphate-Buffered Saline) Gibco Cat. No. 450-1300EB). • 8. HNTG (see BIOCHEMICAL FGFR for preparation). • 9. Pierce BCA protein determination kit. • 10. Blocking buffer • 11. TBST (pH 7.0) • 12. Kinase Buffer • 13. Kinase Stop Solution: 200 mM EDTA. • 14. […] AB kit (Vector Laboratories Cat. No. PK 4000). • 16. DMSO • 17. NUNC 96-well V bottom polypropylene plates (Applied Scientific Cat. No. AS-72092). • 18. Turbo-TMB (Pierce). • 19. Turbo-TMB stop solution: 1 M H2SO4. • 20. ATP (Sigma Cat. No. A-7699). • 21. 20% DMSO in TBS (pH 7.0). Procedure
Cell Growth and Lysate Preparation. • 1. Seed cell into growth medium and grow for 2-3 days to 90-100% confluency at 37° C. and 5% CO2.
2. Remove the medium and wash the cells twice with PBS. Lyse with HNTG lysis buffer. Collect all lysates and vortex mix them for 20-30 seconds. • 3. Remove insoluble material by centrifugation (5-10 min at about 10,000 ×g). • 4. Determine the protein concentration using BCA kit. • 5. Partition lysate into 1 mg aliquots, store at −80° C.
Assay Procedure • 1. Coat Corning 96-well ELISA plates with 2 μg/well purified L4 (or E 38) in 100 μl of PBS. Store overnight at […] • 2. Remove unbound proteins from wells by inverting the plate to remove the liquid. Wash one time with dH2O, pat plate on paper towel to remove excess liquid. • 3. Block plates with 150 μl blocking buffer per well. Incubate for 45-60 minutes with shaking at 4° C. • 4. Remove the blocking buffer and wash the ELISA plate three times with dH2O and one time with TBST. Pat plate on paper towel to remove excess liquid. • 5. Dilute lysate in PBS to give final concentration of 50 μg/100 μl. Add 100 μl of diluted lysate to each well. Incubate with shaking at 4° C. overnight. • 6. Remove unbound proteins from wells by inverting the plate. Wash as in step 4. • 7. Add 80 μl of kinase buffer to wells (90 μl to negative control wells). • 8. Dilute test compounds (normally 10-fold) into wells of a polypropylene plate containing 20% DMSO in TBS. • 9. Add 10 μl of the diluted compounds to the ELISA wells containing immobilized flk-1 and shake. Control wells receive no compounds. • 10. From stock 1 mM ATP, prepare 0.3 mM ATP solution in dH2O (alternatively, kinase buffer may be used). • 11. Add 10 μl of 0.3 mM ATP to all wells except the negative controls. Incubate for 60 min. at room temperature with shaking. • 12. After 1 hr stop the kinase reaction by adding 11 μl 200 mM EDTA. Shake for 1-2 min. • 13. Wash the ELISA plate 4 times with dH2O and twice with TBST. • 14. Add 100 μl of 1:5000 biotinylated 4G10:TBST to all wells. Incubate 45 min with shaking at room temperature. • 15. While the above is incubating, add 50 μl of solutions A & B from the ABC kit to 10 ml of TBST. These solutions must be combined approximately 30 min prior to use. • 16. Wash plates as in step 4. • 17. Add 100 μl of the preformed A & B complex to all wells. Incubate 30 min with shaking at room temperature. • 18. Wash plates as in step 4. • 19. Add 100 μl turbo-TMB. Shake at room temperature for 10-15 min. • 20. When the color in the positive control wells reaches an absorbance of about 0.35-0.4, stop the reaction with 100 μl of turbo-TMB stop solution. • 21. Read plates on Dynatech MR7000 ELISA reader, test filter: 450 nM, reference filter: 410 nM.

flkGST = molecular target: T2, flkGST (Homo sapiens, UniProt P35968); assay: bio flkGST assay; format: biochemical
T2 construct: GST
T2 sequence (P35968 786-1356 limits assumed): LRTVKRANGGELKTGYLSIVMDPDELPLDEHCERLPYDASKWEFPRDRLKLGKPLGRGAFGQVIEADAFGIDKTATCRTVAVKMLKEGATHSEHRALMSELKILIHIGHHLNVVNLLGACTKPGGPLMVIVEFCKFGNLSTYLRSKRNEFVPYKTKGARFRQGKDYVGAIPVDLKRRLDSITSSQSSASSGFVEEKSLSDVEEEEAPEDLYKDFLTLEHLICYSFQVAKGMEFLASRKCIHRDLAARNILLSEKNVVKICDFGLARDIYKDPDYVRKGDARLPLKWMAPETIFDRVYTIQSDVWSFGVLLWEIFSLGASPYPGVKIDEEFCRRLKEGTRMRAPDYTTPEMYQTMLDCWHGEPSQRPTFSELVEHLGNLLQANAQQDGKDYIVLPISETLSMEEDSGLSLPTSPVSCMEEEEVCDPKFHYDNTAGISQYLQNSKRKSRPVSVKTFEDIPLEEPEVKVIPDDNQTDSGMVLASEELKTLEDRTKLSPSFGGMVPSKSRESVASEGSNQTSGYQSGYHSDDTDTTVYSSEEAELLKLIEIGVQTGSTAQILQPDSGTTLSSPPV

T1 sequence (P35968 20-1356): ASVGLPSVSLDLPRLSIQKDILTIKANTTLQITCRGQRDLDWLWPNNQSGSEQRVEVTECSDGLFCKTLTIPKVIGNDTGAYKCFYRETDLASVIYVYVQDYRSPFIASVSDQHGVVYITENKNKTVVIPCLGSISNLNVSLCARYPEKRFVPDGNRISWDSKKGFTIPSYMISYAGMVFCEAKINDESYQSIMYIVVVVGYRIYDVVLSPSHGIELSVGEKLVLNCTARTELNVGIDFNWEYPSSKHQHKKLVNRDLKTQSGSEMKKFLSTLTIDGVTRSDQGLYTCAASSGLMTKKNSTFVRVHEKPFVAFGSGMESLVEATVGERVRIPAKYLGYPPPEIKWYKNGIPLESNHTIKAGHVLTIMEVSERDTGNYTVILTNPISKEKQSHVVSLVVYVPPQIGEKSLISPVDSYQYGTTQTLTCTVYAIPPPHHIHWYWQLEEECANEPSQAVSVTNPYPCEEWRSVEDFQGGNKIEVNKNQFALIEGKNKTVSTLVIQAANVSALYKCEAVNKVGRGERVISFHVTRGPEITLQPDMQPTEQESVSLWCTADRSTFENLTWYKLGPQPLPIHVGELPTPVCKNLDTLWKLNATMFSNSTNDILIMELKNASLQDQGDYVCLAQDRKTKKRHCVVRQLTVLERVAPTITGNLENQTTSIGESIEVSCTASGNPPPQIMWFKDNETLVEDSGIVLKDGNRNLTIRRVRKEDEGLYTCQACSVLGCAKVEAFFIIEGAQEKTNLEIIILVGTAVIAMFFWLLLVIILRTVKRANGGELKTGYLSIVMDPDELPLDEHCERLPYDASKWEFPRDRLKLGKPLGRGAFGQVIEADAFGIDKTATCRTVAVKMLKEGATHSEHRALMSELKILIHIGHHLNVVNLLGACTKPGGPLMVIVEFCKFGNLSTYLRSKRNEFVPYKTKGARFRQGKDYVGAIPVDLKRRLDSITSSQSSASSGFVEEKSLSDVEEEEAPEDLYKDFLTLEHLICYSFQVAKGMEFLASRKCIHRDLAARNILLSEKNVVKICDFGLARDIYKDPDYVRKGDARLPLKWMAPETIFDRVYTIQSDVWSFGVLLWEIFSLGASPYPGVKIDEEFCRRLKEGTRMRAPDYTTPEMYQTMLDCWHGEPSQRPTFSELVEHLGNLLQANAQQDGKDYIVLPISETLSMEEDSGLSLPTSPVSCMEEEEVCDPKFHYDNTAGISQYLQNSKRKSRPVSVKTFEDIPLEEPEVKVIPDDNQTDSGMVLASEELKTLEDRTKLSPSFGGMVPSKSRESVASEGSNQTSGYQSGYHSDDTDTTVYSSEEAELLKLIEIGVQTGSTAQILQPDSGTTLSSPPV

Structure (SMILES): Cc1ccc2c(c1)/C(=C/c1[nH]c3c(c1CCC(=O)O)CCCC3)C(=O)N2 [Example 194, 3-[2-(5-Methyl-2-oxo-1,2-dihydroindol-3-ylidenemethyl)-4,5,6,7-tetrahydro-1H-indol-3-yl]-propionic acid]
- IC50 (human flk-1): 0.001 µM
- IC50 (flkGST): 6670 nM

Structure (SMILES): COc1ccc2c(c1)/C(=C/c1[nH]cc(C)c1CCC(=O)O)C(=O)N2 [Example 222, 3-[2-(5-Methoxy-2-oxo-1,2-dihydroindol-3-ylidenemethyl)-4-methyl-1H-pyrrol-3-yl]-propionic acid]
- IC50 (human flk-1): < 0.78 µM
- IC50 (flkGST): 180 nM

Structure (SMILES): CNC(=O)CCc1c(/C=C2\C(=O)Nc3ccccc32)[nH]c2c1CCCC2 [Example 201, N-Methyl-3-[2-(2-oxo-1,2-dihydroindol-3-ylidenemethyl)-4,5,6,7-tetrahydro-1H-indol-3-yl]-propionamide]
- IC50 (human flk-1): 0.16 µM
- IC50 (flkGST): 570 nM

Structure (SMILES): O=C(O)CCc1c(/C=C2\C(=O)Nc3cc(-c4ccccc4)ccc32)[nH]c2c1CCCC2 [Example 206, 3-[2-(2-oxo-6-phenyl-1,2-dihydroindol-3-ylidenemethyl)-4,5,6,7-tetrahydro-1H-indol-3-yl]-propionic acid]
- IC50 (human flk-1): 6.08 µM
- IC50 (flkGST): 60 nM

Structure (SMILES): COc1cccc(-c2ccc3c(c2)NC(=O)/C3=C\c2[nH]cc(C)c2CCC(=O)O)c1 [Example 223, 3-{2-[6-(3-Methoxyphenyl)-2-oxo-1,2-dihydro-indol-3-ylidenemethyl]-4-methyl-1H-pyrrol-3-yl}-propionic acid]
- IC50 (human flk-1): 28.2 µM
- IC50 (flkGST): 570 nM

Structure (SMILES): COc1ccc2c(c1)NC(=O)/C2=C\c1[nH]c2c(c1CCC(=O)O)CCCC2 [Example 196, 3-[2-(6-Methoxy-2-oxo-1,2-dihydroindol-3-ylidenemethyl)-4,5,6,7-tetrahydro-1H-indol-3-yl]-propionic acid]
- IC50 (human flk-1): 0.89 µM
- IC50 (flkGST): 410 nM

Structure (SMILES): Cc1c[nH]c(/C=C2\C(=O)Nc3ccc(Cl)cc32)c1CCC(=O)O [Example 216, 3-[2-(5-Chloro-2-oxo-1,2-dihydroindol-3-ylidenemethyl)-4-methyl-1H-pyrrol-3-yl]-propionic acid]
- IC50 (human flk-1): 2.91 µM

Structure (SMILES): COc1ccc2c(c1)NC(=O)/C2=C\c1[nH]cc(C)c1CCC(=O)O [Example 217, 3-[2-(6-Methoxy-2-oxo-1,2-dihydroindol-3-ylidenemethyl)-4-methyl-1H-pyrrol-3-yl]-propionic acid]
- IC50 (human flk-1): 1.47 µM

Structure (SMILES): O=C(O)CCc1c(/C=C2\C(=O)Nc3ccc(Br)cc32)[nH]c2c1CCCC2 [Example 192, 3-[2-(5-Bromo-2-oxo-1,2-dihydroindol-3-ylidenemethyl)-4,5,6,7-tetrahydro-1H-indol-3yl]-propionic acid]
- IC50 (human flk-1): 0.03 µM
- IC50 (flkGST): 30 nM

Structure (SMILES): COc1c(C(C)C)cc(/C=C2/C(=O)Nc3ccccc32)cc1C(C)C [Example 1, 3-(3,5-Diisopropyl-4-methoxybenzylidene)-1,3-dihydroindol-2-one]
- IC50 (human flk-1): > 50 µM

Structure (SMILES): O=C(O)CCc1ccccc1/C=C1/C(=O)Nc2ccccc21 [Example 214, 3-[2-(2-Oxo-1,2-dihydroindol-3-ylidenemethyl)-phenyl]-propionic acid]
- IC50 (human flk-1): 50.6 µM

Structure (SMILES): Cc1c[nH]c(C=C2C(=O)Nc3cc(Cl)ccc32)c1CCC(=O)O [Example 219, 3-[2-(6-Chloro-2-oxo-1,2-dihydroindol-3-ylidenemethyl)-4-methyl-1H-pyrrol-3-yl]-propionic acid]
- IC50 (human flk-1): 0.19 µM

Structure (SMILES): COc1c(C(C)C)cc(/C=C2/C(=O)Nc3ccc(Cl)cc32)cc1C(C)C [Example 2, 5-Chloro-3-(3,5-diisopropyl-4-methoxybenzylidene)-1,3-dihydroindol-2-one]
- IC50 (human flk-1): > 50 µM

Structure (SMILES): O=C1Nc2ccc(N=Cc3cc4ccccc4[nH]3)cc2C1=Cc1cc2ccccc2[nH]1 [Example 171, 3-(1H-indol-2-ylmethylene)-5-[(1H-indol-2-ylmethylene)-amino]-1,3-dihydroindol-2-one]
- IC50 (human flk-1): 20.4 µM

Structure (SMILES): O=C(O)CCc1c(/C=C2\C(=O)Nc3ncccc32)[nH]c2c1CCCC2 [Example 203, 3-[2-(2-Oxo-1,2-dihydropyrrolo[2,3-b]pyridin-3-ylidenemethyl)-4,5,6,7-tetrahydro-1H-indol-3-yl]-propionic acid]
- IC50 (human flk-1): 0.14 µM
